SMILES strings stand for the structures.

The values below come from patent publication US12226386B2, “Compositions and methods for treating biofilms” (The Regents of the University of California, priority 2018, dated 2025).

In one assay the test system is C. albicans biofilms. The assay is described as follows: in vitro biofilm disruption assay, fungal. In kind it is cell-based, Candida albicans. The note with it: 1% amino acid, p<0.001. As to the method:
Two types of biofilm assays were performed: a sustained inhibition assay and a disruption assay.
(§1) For fungal biofilm assays, all solutions were prepared in RPMI 1640 medium. All bacterial biofilm solutions were prepared in Tryptic Soy Broth (TSB), supplemented with 1% glucose (henceforth referred to as TSB-G). All subsequent procedures were performed in a manner that maintained sterility. A solution of each amino acid to be tested was prepared in weight to volume concentrations ranging from 0.1-5.0%. Amino acids were also tested in combinations. Compound solutions were homogenized with gentle agitation in the dark (4° C., 24 hours) before use.
Fungal strains were streaked on Yeast Peptone Dextrose (YPD) agar plates and incubated at 30° C. for 48 hours. A single colony from each strain to be tested was inoculated into YPD broth and grown for 12 hours, at 30° C., shaking at 225 rpm. For the fungal biofilm inhibition assay, 1 μl of saturated overnight cell culture was added to either 80 μL of RPMI-1640 or RPMI-1640 supplemented with the amino acid compound solution to be tested, in a 384-well plate. […] Media was carefully aspirated and the biofilm was measured by optical density at 600 nm. Twelve replicates were performed for each tested condition and the reported values are normalized to the control (RPMI-1640 media only). For the fungal biofilm disruption assays, 80 μL of RPMI-1640 was added to the plate, along with 1 μL of overnight cell culture. […] Loosely bound cells were washed once with PBS and 80 μL of RPMI-1640 was added to the plate. […] Media was carefully aspirated from the mature biofilm and 80 μL of RPMI-1640, or RPMI-1640 supplemented with the amino acid compound solution to be tested, was gently added to the plate. […] Media was carefully aspirated and the biofilm was measured by optical density at 600 nm. Twelve replicates were performed for each tested condition and the reported values are normalized to the control (RPMI-1640 media only).
The cells were allowed to adhere to the plate for 90 minutes at 37° C. with shaking (350 rpm). […] The plate was further incubated for 24 hours at 37° C. with shaking (350 rpm). […] The plate was further incubated for 24 hours at 37° C. with shaking (350 rpm). Media was carefully aspirated and the biofilm was measured by optical density at 600 nm.

The subject of assay [1] is Candida and Staphylococcus biofilms. The assay is described as follows: biofilm assays (sustained inhibition and disruption), bacterial and fungal. The settings on record: Tables 4 and 5. In kind it is cell-based, Candida albicans; Staphylococcus aureus. As to the method: In vitro biofilm formation was tested using two assays, sustained inhibition and disruption. Both assays assess biofilm formed on polystyrene plates. The first, tests the effects of amino acid solution on a developing biofilm, while the latter tests the effects of the solution on a pre-formed mature biofilm, both compared to media without supplemented amino acids.
Other amino acids in the blood of animals could combat bacterial and fungal biofilm and therefore may be useful in treating these bacterial and fungal infections that would lie on the external surfaces of infected animals such as humans and could also be used to combat these pathogens on instruments and surfaces that need to be treated. Two types of biofilm assays were performed: a sustained inhibition assay and a disruption assay. The sustained inhibition assay assessed the compound's ability to prevent biofilm development throughout all stages of biofilm formation, while the disruption assay assessed the compound's ability to break up an existing mature biofilm.
as §1
Fungal strains were streaked on Yeast Peptone Dextrose (YPD) agar plates and incubated at 30° C. for 48 hours. A single colony from each strain to be tested was inoculated into YPD broth and grown for 12 hours, at 30° C., shaking at 225 rpm. For the fungal biofilm inhibition assay, 1 μl of saturated overnight cell culture was added to either 80 μL of RPMI-1640 or RPMI-1640 supplemented with the amino acid compound solution to be tested, in a 384-well plate. The cells were allowed to adhere to the plate for 90 minutes at 37° C. shaking at 350 rpm. Loosely bound cells were washed once with phosphate buffered saline (PBS) and 80 μl of RPMI-1640, or RPMI-1640 supplemented with the amino acid compound solution was added to the plate. The plate was further incubated for 24 hours at 37° C. shaking at 350 rpm. Media was carefully aspirated and the biofilm was measured by optical density at 600 nm. Twelve replicates were performed for each tested condition and the reported values are normalized to the control (RPMI-1640 media only). For the fungal biofilm disruption assays, 80 μL of RPMI-1640 was added to the plate, along with 1 μL of overnight cell culture. The cells were allowed to adhere to the plate for 90 minutes at 37° C. shaking at 350 rpm. Loosely bound cells were washed once with PBS and 80 μL of RPMI-1640 was added to the plate. The plate was further incubated for 24 hours at 37° C. shaking at 350 rpm. Media was carefully aspirated from the mature biofilm and 80 μL of RPMI-1640, or RPMI-1640 supplemented with the amino acid compound solution to be tested, was gently added to the plate. The plate was further incubated for 24 hours at 37° C. shaking at 350 rpm. Media was carefully aspirated and the biofilm was measured by optical density at 600 nm. Twelve replicates were performed for each tested condition and the reported values are normalized to the control (RPMI-1640 media only).
Bacterial strains were streaked on Blood Agar plates (5% sheep blood in Tryptic Soy Agar) and incubated at 37° C. for 24 hours. A single colony from each strain to be tested was inoculated in a TSB broth and grown for 12 hours, at 37° C. shaking at 225 rpm. For the bacterial biofilm inhibition assays, 1 μL of saturated overnight cell culture was added to either 80 μL of TSB-G, or TSB-G supplemented with the amino acid compound solution to be tested, in a 384-well plate. […]

Regarding `N[C@@H](CCC(=O)O)C(=O)O` [Glutamic Acid, L-glutamic acid], the “Reduce F Biofilm” value with C. albicans biofilms is “●● (two dots [i.e. ●●] signifies major effect (greater than about 30% change))”. The “effect on Candida and Staphylococcus biofilms in inhibition and disruption assays” value (from here on “effect … in inhibition and disruption assays”) in assay [1] was “both inhibit and disrupt”.
As for `N[C@@H](CC(=O)O)C(=O)O` [Aspartic Acid, L-aspartic acid], the “Reduce F Biofilm” value in the assay on C. albicans biofilms is “●● (two dots [i.e. ●●] signifies major effect (greater than about 30% change))”. In assay [1], the “effect … in inhibition and disruption assays” value is “both inhibit and disrupt”.
As for `N[C@@H](CS)C(=O)O` [Cysteine, L-cysteine], the “Reduce F Biofilm” value in the assay with C. albicans biofilms was “●● (two dots [i.e. ●●] signifies major effect (greater than about 30% change))”. In addition, the “effect … in inhibition and disruption assays” value in assay [1] was “both inhibit and disrupt”.
